Reference: patent US20250137054A1, “COMPOSITION AND METHOD FOR EVALUATING RESPONSIVENESS OF EDARAVONE” (MITSUBISHI TANABE PHARMA CORPORATION, priority 2022, published 2025)

Tests used:
[1] = system: healthy individual-derived neurons (iPS cell-derived motor neurons); test: Evaluation of cellular damage by live cell imaging, healthy individual-derived neurons; format: cell-based, human; conditions: edaravone 30 μM, 24 hours
Description: (§1) Human induced pluripotent stem (iPS) cells were induced from cells derived from an ALS patient and cells derived from a healthy individual using a conventional method. The cells derived from the ALS patient were used that are known to have an ALS risk mutation as a heterozygous mutation in the TARDBP gene. Each iPS cell was differentiated into a motor neuron (hereinafter, also simply referred to as a “neuron”) using a conventional method. […]
A treatment was performed in which the culture medium dissolved with a dimethyl sulfoxide (DMSO) solution of the evaluation compound (edaravone) (final concentration: edaravone 30 μM, DMSO 0.03% v/v) was brought into contact with the neurons after 7 days of cultivation, and occurrence of cellular damage was evaluated over time. […]
Evaluation of cellular damage was performed by live cell imaging using IncuCyte S3 (Sartorius) and Cytotox (Sartorius, 4846) according to an attached protocol. The neurite length per unit area (unit: mm/mm^2) and the number of dead cells (unit: count/image) were analyzed over time and used as evaluation indicators. […]

[2] = system: TDP-43 in healthy individual-derived neurons; test: TDP-43 localization evaluation, healthy individual-derived neurons; format: cell-based, human; conditions: edaravone treatment, DMSO group = 100 (FIG. 15)
Text: as §1
Intracellular localization of TDP-43 polypeptides was evaluated by immunofluorescence staining of neurons. […] After further nuclear staining, washing with PBS, and imaging under a fluorescence microscope were performed. The captured images were analyzed using Matlab (Mathworks), and fluorescence intensities of TDP-43 in a nuclear region and in a cytoplasmic region were respectively calculated. […]
Regarding the intracellular localization of TDP-43 polypeptides, the nuclear and cytoplasmic TDP-43 fluorescence intensities and the cytoplasmic/nuclear TDP-43 intensity ratios in ALS cells and healthy cells are shown in FIG. 15. […]

CC1=NN(c2ccccc2)C(=O)C1 [edaravone, 5-methyl-2-phenyl-2,4-dihydro-3H-pyrazol-3-one]
neurite length (rate of change, DMSO group = 100) ([1]; vs DMSO-treated group (FIG. 13)): no significant change
number of dead neurons (rate of change, DMSO group = 100) ([1]; vs DMSO-treated group (FIG. 14)): no significant change
effect of decreasing the cytoplasmic/nuclear TDP-43 intensity ratio [2]: not observed
